Assay results: patent US20250171400A1, “AZA-HETEROCYCLYL CARBOXAMIDE AND RELATED COMPOUNDS AND THEIR USE IN TREATING MEDICAL CONDITIONS” (X-BIOTIX THERAPEUTICS, INC., priority 2021, published 2025)
Converted amounts (≈) assume the structure as drawn. Read-outs that look alike come from different tables or passages of the source.

How the values were obtained:
E. coli LpxC = E. coli LpxC (Escherichia coli (strain K12), UniProt P0A725); experiment: in vitro substrate deacetylation assay for inhibition of LpxC (ADDA analysis); type: biochemical; conditions: 5 nM E. coli LpxC, 2.5 μM substrate, 1 hour at room temperature
Sequence of E. coli LpxC (P0A725 whole entry): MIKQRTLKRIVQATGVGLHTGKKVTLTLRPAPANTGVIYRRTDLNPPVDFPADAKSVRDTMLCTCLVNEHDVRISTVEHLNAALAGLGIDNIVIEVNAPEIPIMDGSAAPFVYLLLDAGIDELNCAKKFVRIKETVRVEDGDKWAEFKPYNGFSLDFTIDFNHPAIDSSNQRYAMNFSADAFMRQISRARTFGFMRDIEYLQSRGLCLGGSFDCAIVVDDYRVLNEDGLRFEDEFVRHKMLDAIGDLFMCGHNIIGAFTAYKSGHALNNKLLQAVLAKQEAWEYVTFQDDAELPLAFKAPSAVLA
Experimental: (§1) Exemplary compounds from the above Examples were tested for ability to inhibit LpxC activity using an in vitro substrate deacetylation assay with ADDA™ analysis. Assay procedures and results are described below.
Dilutions of test compound were pre-incubated with 5 nM P. aeruginosa or E. coli LpxC for 10 minutes at room temperature in 50 mM NaH2PO4, 500 mM sucrose, 0.2 mg/mL BSA, pH 7.2 and <1% DMSO. Reactions were initiated by the addition of 2× substrate (UDP-3-O—(R-3-hydroxydecanoyl)-N-acetylglucosamine, Carbosynth Ltd, UK, for P. aeruginosa LpxC and UDP-3-O—(R-3-hydroxymyristoyl)-N-acetylglucosamine, BOC Sciences, USA, for E. coli LpxC), in 50 mM NaH2PO4, 0.5 mg/mL BSA, pH 7.2, to a final concentration of 2.5 μM. Reactions proceeded for 1 hour at room temperature prior to quenching with and equal volume of 2% acetic acid.
For ADDA™ analysis, an aliquot of assay sample was withdrawn from each well of the 384-well plate and applied to a Hypercarb cartridge (Optimize Technologies, USA) under conditions designed to retain analytes of interest. Analytes were eluted using 1:1:2 acetone:acetonitrile:water containing 5 mM ammonium acetate then analysed by triple-quadrupole mass spectrometry. Mass spectrometry was carried out using electrospray ionization in negative ion mode. Daughter ion peaks representing detected substrate (P. aeruginosa: parent Q1 mass=775.8 amu, daughter Q3 mass=384.7 amu E. coli: parent Q1 mass=833.0 amu, daughter Q3 mass=385.0 amu, collision energy=analyte specific, dwell time=50 ms) were identified using a multiple-reaction monitoring protocol.
Total activity (0% inhibition) was obtained from reactions containing no compound, and 100% inhibition is defined as reactions in the presence of 1 μM CHIR-090 (N-[(1S,2R)-2-hydroxy-1-[(hydroxyamino)carbonyl]propyl]-4-[2-[4-(4-morpholinylmethyl)phenyl]ethynyl]-benzamide). For IC50 determinations, peak areas of the substrate and product were compared to compute the proportion of substrate reacted by the LpxC enzyme at each compound concentration. The fractional activity was converted to percentage inhibition and plotted against compound concentration in ActivityBase™ and fit using a four-parameter logistic using non-linear regression to yield the IC50 value.

P. aeruginosa LpxC = P. aeruginosa LpxC (Pseudomonas aeruginosa (strain ATCC 15692 / DSM 22644 / CIP 104116 / JCM 14847 / LMG 12228 / 1C / PRS 101 / PAO1), UniProt P47205); experiment: biochemical; type: biochemical; conditions: 5 nM P. aeruginosa LpxC, 2.5 μM substrate, 1 hour at room temperature
Experimental: as §1
For ADDA™ analysis, an aliquot of assay sample was withdrawn from each well of the 384-well plate and applied to a Hypercarb cartridge (Optimize Technologies, USA) under conditions designed to retain analytes of interest. Analytes were eluted using 1:1:2 acetone:acetonitrile:water containing 5 mM ammonium acetate then analysed by triple-quadrupole mass spectrometry. Mass spectrometry was carried out using electrospray ionization in negative ion mode.
For IC50 determinations, peak areas of the substrate and product were compared to compute the proportion of substrate reacted by the LpxC enzyme at each compound concentration.

[1] = system: E. coli BW25113 isogenic mutant deficient in acrA mediated efflux; experiment: broth microdilution minimum inhibition concentration assay; type: cell-based; conditions: Escherichia coli, BW25113, read-out: E. coli KO MIC
Experimental: (§2) Exemplary compounds from the above Examples were tested to determine their minimum inhibitory concentration (MIC) for exemplary strains of Eschericia and Pseudomonas bacteria using broth microdilution methods. Assay procedures and results are described below.
(§3) Broth microdilution assays were conducted according to Clinical and Laboratory Standards Institute guidelines (CLSI, M07-A11: Clinical and Laboratory Standards Institute. Methods for Dilution Antimicrobial Susceptibility Tests for Bacteria that Grow Aerobically; Approved Standard—11th Edition. Wayne, PA: CLSI, 2018.). Briefly, a 0.5 McFarland standard suspension was made from bacterial isolates on non-selective, solid media. The inocula were adjusted to give a bacterial concentration of 1×10^6 CFU/mL. Serial doubling-dilutions of each compound were prepared in cation-adjusted Mueller-Hinton broth (Sigma-Aldrich) in 96-well microdilution plates. A 50 μL aliquot of the inoculum was added to each microdilution plate and, within 15 minutes, incubated at 37° C. in air for 16-20 h. […] The test was controlled by the determination of piperacillin MIC against both E. coli ATCC 25922 and P. aeruginosa ATCC 27853 and ensuring accordance with the ranges published in CLSI supplementary document M100 (CLSI, M100Ed29: Clinical and Laboratory Standards Institute. Performance Standards for Antimicrobial Susceptibility Testing, 29th Edition. Wayne, PA: CLSI, 2018.).
(§4) Multiple enterobacteriaceae strains were tested, including E. coli ATCC 25922 and K. pneumoniae ATCC 43816. WT E. coli BW25113 was tested with an isogenic mutant deficient in acrA mediated efflux by clean deletion. WT P. aeruginosa PAO1 was tested with an isogenic mutant deficient in MexA mediated efflux by clean deletion.
(§5) Experimental results are provided in Table 4, which provides MIC values for wild-type E. coli BW25113 (“E. coli WT MIC”), an isogenic mutant deficient in acrA mediated efflux by clean deletion (“E. coli KO MIC”), wild-type P. aeruginosa PAO1 (“P. aeruginosa WT MIC”), and an isogenic mutant deficient in MexA mediated efflux by clean deletion (“[…]”).

[2] = system: P. aeruginosa PAO1 isogenic mutant deficient in MexA mediated efflux; experiment: as above; type: cell-based; conditions: Pseudomonas aeruginosa, PAO1, read-out: P. aeruginosa KO MIC
Experimental: as §2, §3, §4, §5

[3] = system: wild-type E. coli BW25113; experiment: as above; type: cell-based; conditions: Escherichia coli; wild-type E. coli BW25113, 37° C. 16-20 h; read-out: E. coli WT MIC
Experimental: as §2, §3, §4, §5

[4] = system: wild-type P. aeruginosa PAO1; experiment: as above; type: cell-based; conditions: Pseudomonas aeruginosa
Experimental: as §2, §3, §4, §5

[5] = PAO1, read-out: P. aeruginosa WT MIC
[6] = wild-type P. aeruginosa PAO1, 37° C. 16-20 h, read-out: P. aeruginosa WT MIC

SMILES	IC50 (E. coli LpxC)	IC50 (P. aeruginosa LpxC)	MIC [1]	MIC [2]	MIC [3]	MIC [4, 5]	MIC [4, 6]
O=C(N[C@@H]1C[C@H](C(=O)NCc2ccc(C#CC#CC3CC3)cc2)N(C(=O)C2CCNCC2)C1)[C@@H]1C[C@H](F)CN1 [Example 9P]	2500 to 10000 nM	100 to 1000 nM	> 100 µM	> 100 µM	> 100 µM	> 100 µM	
CC(C)C(=O)N1C[C@H](NC(=O)[C@@H]2CC(F)(F)CN2)C[C@@H]1C(=O)NCc1ccc(C#Cc2ccccc2)cc1 [Example 9C]	500 to 2500 nM	100 to 1000 nM	20 to 100 µM (≈ 10.5 to 52.3 µg/mL)	> 100 µM	> 100 µM	> 100 µM	
CNC(=O)N1C[C@H](NC(=O)[C@@H]2C[C@H](F)CN2)C[C@@H]1C(=O)NCc1ccc(C#Cc2ccc(CN3CCOCC3)cc2)cc1 [Example 9AR]	< 500 nM	< 50 nM	20 to 100 µM (≈ 11.8 to 59.1 µg/mL)	< 20 µM	> 100 µM		> 100 µM
O=C(NC[C@H]1C[C@@H](NC(=O)[C@@H]2C[C@H](F)CN2)CN1C(=O)C1CC1)c1ccc(C#Cc2ccc(CN3CCOCC3)cc2)cc1 [Example 9AS]	< 500 nM	< 50 nM	< 20 µM	< 20 µM	< 20 µM		> 100 µM
COC(=O)N1C[C@H](NC(=O)[C@@H]2C[C@H](F)CN2)C[C@@H]1C(=O)NCc1ccc(C#CC#CC2CC2)cc1 [Example 9R]	500 to 2500 nM	< 50 nM	< 20 µM	< 20 µM	> 100 µM		> 100 µM
CC(C)C(=O)N1C[C@H](NC(=O)[C@@H]2C[C@H](C#N)CN2)C[C@@H]1C(=O)NCc1ccc(C#Cc2ccc(CN3CCOCC3)cc2)cc1 [Example 9AD, (2R,4R)-4-((2S,4S)-4-Cyanopyrrolidine-2-carboxamido)-1-isobutyryl-N-(4-((4-(morpholinomethyl)phenyl)ethynyl)benzyl)pyrrolidine-2-carboxamide]	< 500 nM	< 50 nM	20 to 100 µM (≈ 12.2 to 61.1 µg/mL)	< 20 µM	> 100 µM		> 100 µM
CC(C)C(=O)N1C[C@H](NC(=O)[C@@H]2C[C@@H](F)CN2)C[C@@H]1C(=O)NCc1ccc(C#CC#CC2CC2)cc1 [Example 9I]	2500 to 10000 nM	100 to 1000 nM	> 100 µM	> 100 µM	> 100 µM	> 100 µM	
CC(C)C(=O)N1C[C@H](NC(=O)[C@H]2NCC[C@H]2O)C[C@@H]1C(=O)NCc1ccc(C#CC#CC2CC2)cc1 [Example 9W, (2R,4R)—N-(4-(cyclopropylbuta-1,3-diyn-1-yl)benzyl)-4-((2S,3R)-3-hydroxypyrrolidine-2-carboxamido)-1-isobutyrylpyrrolidine-2-carboxamide]	> 10000 nM	100 to 1000 nM	> 100 µM	> 100 µM	> 100 µM	> 100 µM	
NC1CN(C(=O)N2C[C@H](NC(=O)[C@@H]3C[C@H](F)CN3)C[C@@H]2C(=O)NCc2ccc(C#CC#CC3CC3)cc2)C1 [Example 9X]	500 to 2500 nM	< 50 nM	20 to 100 µM (≈ 10.4 to 52.1 µg/mL)	< 20 µM	> 100 µM		> 100 µM
O=C(N[C@@H]1C[C@H](C(=O)NCc2ccc(C#Cc3ccc(CN4CCOCC4)cc3)cc2)N(C(=O)OC2CC2)C1)[C@@H]1C[C@H](F)CN1 [Example 9AW]	< 500 nM	< 50 nM	< 20 µM	< 20 µM	> 100 µM		> 100 µM
CC(C)C(=O)N1C[C@H](NC(=O)[C@@H]2C[C@H](F)CN2)C[C@@H]1C(=O)NCc1ccc(C#CC2CC2)cc1 [Example 9BG]	> 10000 nM	100 to 1000 nM	> 100 µM	> 100 µM	> 100 µM	> 100 µM	
NCCC(=O)N1C[C@H](NC(=O)[C@@H]2C[C@H](F)CN2)C[C@@H]1C(=O)NCc1ccc(C#CC#CC2CC2)cc1 [Example 9M]	2500 to 10000 nM	50 to 100 nM	> 100 µM	> 100 µM	> 100 µM	> 100 µM	
CC(C)C(=O)N1C[C@H](NC(=O)[C@@H]2C[C@H](O)CN2)C[C@@H]1C(=O)NCc1ccc(C#Cc2ccc(CN3CCOCC3)cc2)cc1 [Example 9T, (2R,4R)-4-((2S,4S)-4-Hydroxypyrrolidine-2-carboxamido)-1-isobutyryl-N-(4-((4-(morpholinomethyl)phenyl)ethynyl)benzyl)pyrrolidine-2-carboxamide]	2500 to 10000 nM	100 to 1000 nM	> 100 µM	> 100 µM	> 100 µM	> 100 µM	
CC(C)C(=O)N1C[C@H](NC(=O)[C@H]2NCC[C@@H]2O)C[C@@H]1C(=O)NCc1ccc(C#Cc2ccc(CN3CCOCC3)cc2)cc1 [Example 9AA]	500 to 2500 nM	< 50 nM	> 100 µM	20 to 100 µM (≈ 12 to 60.2 µg/mL)	> 100 µM	> 100 µM	
CC(C)C(=O)N1C[C@H](NC(=O)[C@@H]2CCCN2)C[C@@H]1C(=O)NCc1ccc(C#CC#CC2CC2)cc1 [Example 9L]	500 to 2500 nM	100 to 1000 nM	20 to 100 µM (≈ 9.49 to 47.5 µg/mL)	20 to 100 µM (≈ 9.49 to 47.5 µg/mL)	> 100 µM	> 100 µM	
C[C@H](CN)C(=O)N1C[C@H](NC(=O)[C@@H]2C[C@H](F)CN2)C[C@@H]1C(=O)NCc1ccc(C#CC#CC2CC2)cc1 [Example 9N]	500 to 2500 nM	50 to 100 nM	> 100 µM	> 100 µM	> 100 µM	> 100 µM	
CN(C)C(=O)N1C[C@H](NC(=O)[C@@H]2C[C@H](F)CN2)C[C@@H]1C(=O)NCc1ccc(C#Cc2ccc(CN3CCOCC3)cc2)cc1 [Example 9AH]	500 to 2500 nM	< 50 nM	20 to 100 µM (≈ 12.1 to 60.5 µg/mL)	< 20 µM	> 100 µM		> 100 µM
CC(C)C(=O)N1C[C@H](NC(=O)[C@@H]2CC(F)(F)CN2)C[C@@H]1C(=O)NCc1ccc(C#Cc2ccc(CN3CCOCC3)cc2)cc1 [Example 9F]	500 to 2500 nM	50 to 100 nM	20 to 100 µM (≈ 12.4 to 62.2 µg/mL)	20 to 100 µM (≈ 12.4 to 62.2 µg/mL)	> 100 µM	> 100 µM	
